Values of other authors in US6482832B1, “Heterocyclically substituted amides, their production and their use” (Abbott Laboratories, priority 1998, dated 2002).
Read-outs that look alike come from different tables or passages of the source.

Legend:
[1] = tested on: cells; details: surmount the cell membrane only with difficulty
[2] = tested on: calpain
[3] = tested on: calpain-mediated cleavage of pp60src in platelets; details: activated platelets; Oda et al., J. Biol. Chem. 1993

| Compound | effect on cells [1] | calpain inhibition ([2]; known calpain inhibitors) | cleavage of pp60src [3] | calpain inhibition ([2]; M. R. Angelastro et al., J. Med. Chem. 1990, 33, 11-13) |
| --- | --- | --- | --- | --- |
| CC(C)C[C@H](NC(=O)[C@H]1O[C@@H]1C(=O)O)C(=O)NCCCCN=C(N)N [E 64] | poor effect on cells | good calpain inhibitors | – | – |
| CCCC[C@@H](C=O)NC(=O)[C@H](CC(C)C)NC(=O)OCc1ccccc1 [calpeptin] | – | – | can prevent the cleavage of pp60src | – |
| CC(=O)N[C@@H](CC(C)C)C(=O)N[C@@H](CC(C)C)C(=O)N[C@H](C=O)CCCNC(=N)N [leupeptin] | poor effect on cells | good calpain inhibitors | – | – |
| Ph—CONH—CH(CH2Ph)—CO—COCOOCH3 | – | – | – | only a weak calpain inhibitor |
